# Patent US12384756B2, “Piperidinedione derivatives” (INNOCURE THERAPEUTICS, INC., priority 2021, dated 2025)
# Columns and labels:
# CRBN = molecular target: T1, CRBN (Homo sapiens, UniProt Q96SW2); assay: NanoBRET intracellular E3 ligase assay, CRBN binding affinity; settings: BRET assay, compared with pomalidomide
# T1 construct: host or cells: HEK 293T
# Experimental: The binding affinity of the synthesized compounds to CRBN E3 ligase was measured using PROMEGA NANOBRET™ Intracellular E3 ligase Assay, CRBN [cat #N2910]. Bioluminescence resonance energy transfer (BRET) assay is a method that the transfer of luminescence energy of POI into a bound fluorescent tracer is measured. […] Thus, the affinity of a compound to the POI can be measure.
# 9.0 mg/ml of DDB1 expression vector and 1.0 mg/ml of NanoLuc-CRBN fusion vector were transfected using LIPOFECTAMINE™ 3000.
# Then, the cell lines were treated with a compound prepared at various concentrations, and then mixed for 15 seconds. Then, cell walls were broken by using digitonin, and the mixture was reacted for 25 minutes. Then, the mixture was treated with luciferase substrate. The luminescence intensity and the fluorescence intensity were measure at donor emission wavelength (450 nm) and at acceptor emission wavelength (610 nm), and then BRET ratio was calculated and normalized. BRET ratio was calculated by the following formula: BRET ratio: Acceptor/Donor×1000 [4] CRBN Binding Affinity of the Compound
# SHP2 = molecular target: T2, SHP2 (Homo sapiens, UniProt Q06124); assay: SHP2 protein degradation by western blot in MV-4-11 cells; format: cell-based; settings: MV-4-11, 24 hours; for DC50: 50% inhibition of protein expression, read-out: DC50 of SHP2-targeted PROTAC
# T2 construct: SHP2 expressed in cells; endogenous in cells; host or cells: MV-4-11
# T2 sequence (Q06124 1-593): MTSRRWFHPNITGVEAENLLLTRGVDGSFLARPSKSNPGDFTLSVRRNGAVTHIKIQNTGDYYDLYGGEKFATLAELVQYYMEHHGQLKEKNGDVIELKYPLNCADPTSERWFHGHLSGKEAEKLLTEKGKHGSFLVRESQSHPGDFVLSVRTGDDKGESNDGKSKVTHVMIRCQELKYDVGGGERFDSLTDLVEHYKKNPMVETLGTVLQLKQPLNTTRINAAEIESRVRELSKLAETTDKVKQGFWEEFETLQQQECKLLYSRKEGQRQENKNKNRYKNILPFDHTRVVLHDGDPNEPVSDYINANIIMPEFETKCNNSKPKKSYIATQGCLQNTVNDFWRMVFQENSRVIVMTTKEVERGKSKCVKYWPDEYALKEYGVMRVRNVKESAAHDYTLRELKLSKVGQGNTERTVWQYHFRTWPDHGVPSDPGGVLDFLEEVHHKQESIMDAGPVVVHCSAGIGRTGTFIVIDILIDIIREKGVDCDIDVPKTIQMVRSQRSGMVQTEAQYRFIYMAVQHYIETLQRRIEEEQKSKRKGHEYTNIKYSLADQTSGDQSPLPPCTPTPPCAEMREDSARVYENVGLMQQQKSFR
# Experimental: (§1) Human hematologic cancer cell line [MV-4-11] was cultured in IMDM medium with 10% fetal bovine serum, penicillin [100 U/ml] and streptomycin [[…]]. The synthesized compound was prepared with a stock solution of 10 mM or 50 mM dissolved in DMSO [dimethyl sulfoxide], and it was sequentially diluted to treat the cell line.
# To observe the PROTAC's degradation ability to SHP2 expressed in cells, the cells were aliquoted into a 12 well plate at a concentrations of 3×10^5 cells/well, and then the sample was treated for 24 hours. In order to conduct western blotting assay to confirm protein expression, the cell treated with the compound was treated for 30 minutes with 70 μL of RIPA buffer with wherein protease inhibitor is added. Then, cell lysate was collected on ice using a scraper and centrifuged at 4° C. 15,000 rpm for 30 minutes to obtain a supernatant containing protein. Then, SDS-PAGE is conducted for 10 μg of protein per sample, and the protein is transferred to a membrane. The protein is reacted with antibodies of anti-SHP2 and anti-GAPDH at 4° C. for 16 hours, and then, reacted with the secondary antibodies at room temperature for 1 hour. The protein expression is confirmed using SuperSignal™ West Pico PLUS chemiluminescence substrate and image analyzer. The protein expression inhibition was normalized based on the expression value of GAPDH. The amount of protein expression in each sample was measured based on the sample treated with 0.1% DMSO vehicle which was set to 100%. The amount of protein expression was quantified using the Image J program. The change in the amount of protein expression due to the treatment of compound (DC50: the concentration of compounds where the 50% inhibition of protein expression is achieved) was calculated using GraphicPad Prism 8.0 software.
# [1] = system: Human hematologic cancer cell line [MV-4-11]; assay: Anti-proliferative activity (WST-8) of SHP2 targeted PROTAC in MV-4-11; format: cell-based; settings: MV-4-11, 72 hours; for IC50: Homo sapiens, MV4-11, WST-8, read-out: IC50 of SHP2-targeted PROTAC (cell proliferation)
# Experimental: as §1
# The cell survival was calculated by steps of adding in each well […] of water soluble tetrazolium salt (WST-8) which produces formazon in response to dehydrogenase present in the electron transport chain in mitochondria, incubating for 3 hours, measuring the absorbance at 450 nm, and calculating […] PRISM 8.0 software.
# T1 sequence (Q96SW2 whole entry): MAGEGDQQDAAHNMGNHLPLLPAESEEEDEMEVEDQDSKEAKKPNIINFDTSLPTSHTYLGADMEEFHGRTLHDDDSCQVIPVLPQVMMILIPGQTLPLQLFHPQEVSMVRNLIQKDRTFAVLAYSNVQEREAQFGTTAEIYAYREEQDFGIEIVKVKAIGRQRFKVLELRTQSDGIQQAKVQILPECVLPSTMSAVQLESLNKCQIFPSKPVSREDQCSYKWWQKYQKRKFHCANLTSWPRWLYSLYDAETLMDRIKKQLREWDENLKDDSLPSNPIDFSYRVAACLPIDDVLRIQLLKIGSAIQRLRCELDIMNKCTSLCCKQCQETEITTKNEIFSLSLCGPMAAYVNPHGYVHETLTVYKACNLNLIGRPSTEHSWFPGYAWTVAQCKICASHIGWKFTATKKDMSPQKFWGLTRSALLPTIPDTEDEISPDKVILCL
# T1 sequence (Q16531 whole entry partner): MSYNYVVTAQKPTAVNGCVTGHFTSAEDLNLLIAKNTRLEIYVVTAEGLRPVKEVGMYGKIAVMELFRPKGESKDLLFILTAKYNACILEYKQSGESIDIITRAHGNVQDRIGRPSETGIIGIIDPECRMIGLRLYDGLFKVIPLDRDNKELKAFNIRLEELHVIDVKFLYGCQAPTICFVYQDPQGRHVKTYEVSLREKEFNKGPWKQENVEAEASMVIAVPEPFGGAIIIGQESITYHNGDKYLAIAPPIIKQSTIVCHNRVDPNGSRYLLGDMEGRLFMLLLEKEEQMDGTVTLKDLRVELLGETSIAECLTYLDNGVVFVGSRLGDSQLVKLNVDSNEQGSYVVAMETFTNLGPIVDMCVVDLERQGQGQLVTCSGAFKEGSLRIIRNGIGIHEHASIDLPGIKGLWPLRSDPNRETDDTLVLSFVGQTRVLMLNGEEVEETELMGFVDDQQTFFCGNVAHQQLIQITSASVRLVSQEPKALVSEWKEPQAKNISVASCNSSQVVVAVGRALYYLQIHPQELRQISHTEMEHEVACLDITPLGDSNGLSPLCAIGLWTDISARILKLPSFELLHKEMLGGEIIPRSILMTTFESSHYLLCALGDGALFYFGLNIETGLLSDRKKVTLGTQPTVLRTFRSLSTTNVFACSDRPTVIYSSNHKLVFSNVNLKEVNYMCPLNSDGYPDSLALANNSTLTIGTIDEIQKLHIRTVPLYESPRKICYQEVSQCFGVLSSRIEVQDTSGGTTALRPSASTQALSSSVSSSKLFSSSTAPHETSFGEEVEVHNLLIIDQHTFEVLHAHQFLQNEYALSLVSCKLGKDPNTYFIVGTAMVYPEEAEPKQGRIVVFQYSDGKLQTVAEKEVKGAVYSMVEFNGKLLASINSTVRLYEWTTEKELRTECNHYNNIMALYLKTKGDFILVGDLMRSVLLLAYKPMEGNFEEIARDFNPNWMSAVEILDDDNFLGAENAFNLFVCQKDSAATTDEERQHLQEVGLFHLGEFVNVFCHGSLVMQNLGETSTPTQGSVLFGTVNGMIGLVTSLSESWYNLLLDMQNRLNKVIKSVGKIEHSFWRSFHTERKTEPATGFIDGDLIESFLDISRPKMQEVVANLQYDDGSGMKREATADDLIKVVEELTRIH
CRBN binding affinity (in words) (CRBN),SHP2 degradation (in words) (SHP2),DC50 (SHP2) [nM],IC50 [1] [nM],Structure (SMILES),inhibition of cancer cell proliferation (in words) [1]
,effectively degraded,70.2,685,"C[C@@H]1OCC2(CCN(c3cnc(Sc4cccc(NC(=O)CCC(=O)N5CCN(C(=O)CCOCCOCCOCCOCCNc6cccc7cnn(C8CCC(=O)NC8=O)c(=O)c67)CC5)c4Cl)c(N)n3)CC2)[C@@H]1N (stereo partly drawn) [Example 77, N-(3-((3-amino-5-((3S,4S)-4-amino-3-methyl-2-oxa-8-azaspiro[4.5]decan-8-yl)pyrazin-2-yl)thio)-2-chlorophenyl)-4-(4-(1-((3-(2,6-dioxopiperidin-3-yl)-4-oxo-3,4-dihydrophthalazin-5-yl)amino)-3,6,9,12-tetraoxapentadecan-15-oyl)piperazin-1-yl)-4-oxobutanamide]",inhibited effectively
,effectively degraded,23.6,337,"C[C@@H]1OCC2(CCN(c3cnc(Sc4cccc(NC(=O)CCC(=O)N5CCN(C(=O)CCOCCOCCOCCOCCOCCOCCNc6cccc7cnn(C8CCC(=O)NC8=O)c(=O)c67)CC5)c4Cl)c(N)n3)CC2)[C@@H]1N (stereo partly drawn) [Example 79, N-(3-((3-amino-5-((3S,4S)-4-amino-3-methyl-2-oxa-8-azaspiro[4.5]decan-8-yl)pyrazin-2-yl)thio)-2-chlorophenyl)-4-(4-(1-((3-(2,6-dioxopiperidin-3-yl)-4-oxo-3,4-dihydrophthalazin-5-yl)amino)-3,6,9,12,15,18-hexaoxahenicosane-21-oyl)piperazin-1-yl)-4-oxobutanamide]",inhibited effectively
,effectively degraded,24.1,422,"C[C@@H]1OCC2(CCN(c3cnc(Sc4cccc(NC(=O)CCC(=O)N5CCN(C(=O)CCOCCOCCOCCOCCOCCNc6cccc7cnn(C8CCC(=O)NC8=O)c(=O)c67)CC5)c4Cl)c(N)n3)CC2)[C@@H]1N (stereo partly drawn) [Example 78, N-(3-((3-amino-5-((3S,4S)-4-amino-3-methyl-2-oxa-8-azaspiro[4.5]decan-8-yl)pyrazin-2-yl)thio)-2-chlorophenyl)-4-(4-(1-((3-(2,6-dioxopiperidin-3-yl)-4-oxo-3,4-dihydrophthalazin-5-yl)amino)-3,6,9,12,15-pentaoxaoctadecan-18-oyl)piperazin-1-yl)-4-oxobutanamide]",inhibited effectively
,effectively degraded,29.9,507,"C[C@@H]1OCC2(CCN(c3cnc(Sc4cccc(NC(=O)CCC(=O)NCCCOCCOCCOCCCNc5ccc6c(=O)n(C7CCC(=O)NC7=O)ncc6c5)c4Cl)c(N)n3)CC2)[C@@H]1N (stereo partly drawn) [Example 73, N1-(3-((3-amino-5-((3S,4S)-4-amino-3-methyl-2-oxa-8-azaspiro[4.5]decan-8-yl)pyrazin-2-yl)thio)-2-chlorophenyl)-N4-(3-(2-(2-(3-((2-(2,6-dioxopiperidin-3-yl)-1-oxo-1,2-dihydrophthalazin-6-yl)amino)propoxy)ethoxy)ethoxy)propyl)succinamide]",inhibited effectively

# Second part, the compound before the results:
Structure (SMILES),CRBN binding affinity (in words) (CRBN),SHP2 degradation (in words) (SHP2),DC50 (SHP2) [nM],IC50 [1] [nM],inhibition of cancer cell proliferation (in words) [1]
"COc1cccc2cnn(C3CCC(=O)NC3=O)c(=O)c12 (stereo not shown) [Ex. 11, 3-(8-methoxy-1-oxophthalazin-2(1H)-yl)piperidine-2,6-dione]",excellent,,,,
"Cc1nn(C2CCC(=O)NC2=O)c(=O)c2c(F)cccc12 (stereo not shown) [Ex. 7, 3-(8-fluoro-4-methyl-1-oxophthalazin-2(1H)-yl)piperidine-2,6-dione]",excellent,,,,
"Cc1nn(C2CCC(=O)NC2=O)c(=O)c2c(N)cccc12 (stereo not shown) [Ex. 8, 3-(8-amino-4-methyl-1-oxophthalazin-2(1H)-yl)piperidine-2,6-dione]",excellent,,,,
